According to patent publication US7795261B2, “Substituted 1-piperidin-4-yl-4-pyrrolidin-3-yl-piperazine derivatives and their use as neurokinin antagonists” (Janssen Pharmaceutica NV, priority 2002, dated 2010):

How the values were obtained:
Format in all cases: cell-based
[1] = target: NK1 (Homo sapiens, UniProt P25103); assay: Signal transduction (ST), intracellular Ca++ (FLIPR), NK1 antagonistic activity; conditions: read-out: pIC50 NK1 (converted)
Procedure, shortened: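 Confluent cells loaded with 2 μM Fluo3 (1 h, 37 °C, probenecid), preincubated 20 min at RT with antagonist concentration range, then agonist added. Peak Ca++ transient read by FLIPR in Krebs buffer pH 7.4; IC50 by non-linear regression.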

[2] = target: T1, NK2 (Homo sapiens, UniProt P21452); assay: Signal transduction (ST), intracellular Ca++ (FLIPR), NK2; conditions: read-out: pIC50 NK2 (converted)
T1 sequence (P21452 1-398): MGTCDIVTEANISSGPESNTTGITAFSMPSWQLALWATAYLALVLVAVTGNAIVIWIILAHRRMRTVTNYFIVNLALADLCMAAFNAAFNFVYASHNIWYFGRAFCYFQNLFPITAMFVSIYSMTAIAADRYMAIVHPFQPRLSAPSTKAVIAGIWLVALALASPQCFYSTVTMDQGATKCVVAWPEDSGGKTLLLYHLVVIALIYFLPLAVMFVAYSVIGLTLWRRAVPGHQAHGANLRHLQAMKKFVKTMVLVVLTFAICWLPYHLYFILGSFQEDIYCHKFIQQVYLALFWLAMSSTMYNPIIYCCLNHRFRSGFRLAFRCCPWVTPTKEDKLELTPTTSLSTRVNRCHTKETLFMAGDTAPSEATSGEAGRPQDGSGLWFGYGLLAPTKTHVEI
Description: [The procedure below names another target; the source lists this target under the same test.] This test evaluates in vitro functional NK1 antagonistic activity. For the measurements of intracellular Ca^++ concentrations the cells were grown on 96-well (black wall/transparent bottom) plates from Costar for 2 days until they reached confluence. The cells were loaded with 2 μM Fluo3 in DMEM containing 0.1% BSA and 2.5 mM probenecid for 1 h at 37° C. They were washed 3× with a Krebs buffer (140 mM NaCl, 1 mM MgCl2×6H2O, 5 mM KCl, 10 mM glucose, 5 mM HEPES; 1.25 mM CaCl2; pH 7.4) containing 2.5 mM probenecid and 0.1% BSA (Ca^++-buffer). The cells were preincubated with a concentration range of antagonists for 20 min at RT and Ca^++-signals after addition of the agonists were measured in a Fluorescence Image Plate Reader (FLIPR from Molecular Devices, Crawley, England). The peak of the Ca^++-transient was considered as the relevant signal and the mean values of corresponding wells were analysed as described below.
The sigmoidal dose response curves were analysed by computerised curve-fitting, using the GraphPad Program. […] For antagonist responses the IC50-value was calculated using non-linear regression.
The last columns indicates—without being limited therefore—for which the compounds might be most suitable. Of course, since for some neurokinin receptors no data was determined, it is obvious that these compounds might be attributed to another suitable use.

[3] = target: T2, NK3 (Homo sapiens, UniProt P29371); assay: Signal transduction (ST), intracellular Ca++ (FLIPR), NK3; conditions: read-out: pIC50 NK3 (converted)
T2 sequence (P29371 1-465): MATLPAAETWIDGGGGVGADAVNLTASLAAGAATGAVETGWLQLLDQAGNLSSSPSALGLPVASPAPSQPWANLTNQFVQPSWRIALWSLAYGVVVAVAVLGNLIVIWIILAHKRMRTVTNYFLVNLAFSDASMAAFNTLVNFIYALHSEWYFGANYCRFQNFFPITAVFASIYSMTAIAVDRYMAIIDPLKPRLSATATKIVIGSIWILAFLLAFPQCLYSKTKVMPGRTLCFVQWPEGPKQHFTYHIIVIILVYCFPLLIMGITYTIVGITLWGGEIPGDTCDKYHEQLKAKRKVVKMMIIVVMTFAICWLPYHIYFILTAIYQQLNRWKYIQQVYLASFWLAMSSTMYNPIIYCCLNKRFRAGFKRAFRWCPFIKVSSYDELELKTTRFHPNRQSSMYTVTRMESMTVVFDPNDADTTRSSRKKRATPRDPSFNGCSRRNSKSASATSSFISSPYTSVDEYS

Sequence of NK1 (P25103 whole entry): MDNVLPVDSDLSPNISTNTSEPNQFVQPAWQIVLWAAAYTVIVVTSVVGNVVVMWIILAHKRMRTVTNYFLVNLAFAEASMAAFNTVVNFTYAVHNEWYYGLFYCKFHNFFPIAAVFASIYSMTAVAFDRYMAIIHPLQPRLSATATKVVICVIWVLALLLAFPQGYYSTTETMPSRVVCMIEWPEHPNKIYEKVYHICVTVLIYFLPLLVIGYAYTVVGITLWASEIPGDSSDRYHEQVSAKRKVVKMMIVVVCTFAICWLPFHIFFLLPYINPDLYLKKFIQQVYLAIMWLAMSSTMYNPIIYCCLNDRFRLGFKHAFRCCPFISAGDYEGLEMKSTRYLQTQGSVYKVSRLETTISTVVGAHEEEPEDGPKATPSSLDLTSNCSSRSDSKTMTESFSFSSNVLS

SMILES	IC50 [1] [nM]	IC50 [2] [nM]	IC50 [3] [nM]
O=C(C1CC1)N1CCC(N2CCN([C@H]3CCN(C(=O)c4cc(C(F)(F)F)cc(C(F)(F)F)c4)[C@H](Cc4ccc(Cl)c(Cl)c4)C3)CC2)C1 (relative stereo) [Compound 162]	10	1000	501
O=C(c1cccs1)N1CCC(N2CCN(C3CCN(C(=O)c4cc(C(F)(F)F)cc(C(F)(F)F)c4)C(Cc4ccc(F)c(F)c4)C3)CC2)C1 (single isomer, unassigned) [Compound 232]	6.31	3160	126
O=C(c1ccsc1)N1CCC(N2CCN(C3CCN(C(=O)c4cc(C(F)(F)F)cc(C(F)(F)F)c4)C(Cc4ccc(F)c(F)c4)C3)CC2)C1 (single isomer, unassigned) [Compound 238]	6.31	1260	158
O=C(c1c(Cl)cccc1Cl)N1CCC(N2CCN(C3CCN(C(=O)c4cc(C(F)(F)F)cc(C(F)(F)F)c4)C(Cc4ccc(F)c(F)c4)C3)CC2)C1 (single isomer, unassigned) [Compound 239]	10	1000	251
O=C(C1CCOC1)N1CCC(N2CCN(C3CCN(C(=O)c4cc(C(F)(F)F)cc(C(F)(F)F)c4)C(Cc4ccc(Cl)c(Cl)c4)C3)CC2)C1 (single isomer, unassigned) [Compound 249]	50.1	5010	5010
O=C(C1CC1)N1CCC(N2CCN(C3CCN(C(=O)c4cc(C(F)(F)F)cc(C(F)(F)F)c4)C(Cc4ccc(F)c(F)c4)C3)CC2)C1 (single isomer, unassigned) [Compound 252]	10	1000	501
Cc1nnsc1C(=O)N1CCC(N2CCN(C3CCN(C(=O)c4cc(C(F)(F)F)cc(C(F)(F)F)c4)C(Cc4ccc(F)c(F)c4)C3)CC2)C1 (single isomer, unassigned) [Compound 253]	5.01	398	501
O=C(c1cccs1)N1CCC(N2CCN(C3CCN(C(=O)c4cc(C(F)(F)F)cc(C(F)(F)F)c4)C(Cc4ccc(F)c(F)c4)C3)CC2)C1 (single isomer, unassigned) [Compound 254]	10	251	501
O=C(c1ccsc1)N1CCC(N2CCN(C3CCN(C(=O)c4cc(C(F)(F)F)cc(C(F)(F)F)c4)C(Cc4ccc(F)c(F)c4)C3)CC2)C1 (single isomer, unassigned) [Compound 257]	10	316	631
O=C(c1cnccn1)N1CCC(N2CCN(C3CCN(C(=O)c4cc(C(F)(F)F)cc(C(F)(F)F)c4)C(Cc4ccc(F)c(F)c4)C3)CC2)C1 (single isomer, unassigned) [Compound 259]	12.6	2000	501
Cn1cccc(C(=O)N2CCC(N3CCN(C4CCN(C(=O)c5cc(C(F)(F)F)cc(C(F)(F)F)c5)C(Cc5ccc(F)c(F)c5)C4)CC3)C2)c1=O (single isomer, unassigned) [Compound 260]	15.8	398	3980
O=C(C1CCOC1)N1CCC(N2CCN(C3CCN(C(=O)c4cc(C(F)(F)F)cc(C(F)(F)F)c4)C(Cc4ccc(F)c(F)c4)C3)CC2)C1 (single isomer, unassigned) [Compound 269]	3.98	2510	6310
O=C(C1CCOC1)N1CCC(N2CCN(C3CCN(C(=O)c4cc(C(F)(F)F)cc(C(F)(F)F)c4)C(Cc4ccc(F)c(F)c4)C3)CC2)C1 (single isomer, unassigned) [Compound 270]	3.16	2000	1260
O=C(C1CCOC1)N1CCC(N2CCN(C3CCN(C(=O)c4cc(C(F)(F)F)cc(C(F)(F)F)c4)C(Cc4ccc(F)c(F)c4)C3)CC2)C1 (single isomer, unassigned) [Compound 281]	5.01	3980	3160
O=C(C1CCOC1)N1CCC(N2CCN(C3CCN(C(=O)c4cc(C(F)(F)F)cc(C(F)(F)F)c4)C(Cc4ccc(F)c(F)c4)C3)CC2)C1 (single isomer, unassigned) [Compound 285]	6.31	3160	631

Continued, values first:

IC50 [1] [nM]	IC50 [2] [nM]	IC50 [3] [nM]	SMILES
15.8	79.4	398	O=C(c1ccccc1Cl)N1CCC(N2CCN([C@H]3CCN(C(=O)c4cc(C(F)(F)F)cc(C(F)(F)F)c4)[C@H](Cc4ccc(Cl)c(Cl)c4)C3)CC2)C1 (relative stereo) [Compound 164]
12.6	5010	200	O=C(c1ccoc1)N1CCC(N2CCN(C3CCN(C(=O)c4cc(C(F)(F)F)cc(C(F)(F)F)c4)C(Cc4ccccc4)C3)CC2)C1 (single isomer, unassigned) [Compound 32]
15.8	3980	501	O=C(c1ccoc1)N1CCC(N2CCN(C3CCN(C(=O)c4cc(C(F)(F)F)cc(C(F)(F)F)c4)C(Cc4ccccc4)C3)CC2)C1 (single isomer, unassigned) [Compound 33]
15.8	3160	398	O=C(c1ccsc1)N1CCC(N2CCN(C3CCN(C(=O)c4cc(C(F)(F)F)cc(C(F)(F)F)c4)C(Cc4ccccc4)C3)CC2)C1 (single isomer, unassigned) [Compound 39]
7.94	2510	126	O=C(c1ccsc1)N1CCC(N2CCN(C3CCN(C(=O)c4cc(C(F)(F)F)cc(C(F)(F)F)c4)C(Cc4ccccc4)C3)CC2)C1 (single isomer, unassigned) [Compound 40]
20	5010	794	O=C(C1CC1)N1CCC(N2CCN(C3CCN(C(=O)c4cc(C(F)(F)F)cc(C(F)(F)F)c4)C(Cc4ccccc4)C3)CC2)C1 (single isomer, unassigned) [Compound 71]
20	6310	631	O=C(c1ccccc1Cl)N1CCC(N2CCN(C3CCN(C(=O)c4cc(C(F)(F)F)cc(C(F)(F)F)c4)C(Cc4ccccc4)C3)CC2)C1 (single isomer, unassigned) [Compound 159]
6.31	1000	200	O=C(c1ccccc1Cl)N1CCC(N2CCN(C3CCN(C(=O)c4cc(C(F)(F)F)cc(C(F)(F)F)c4)C(Cc4ccc(F)c(F)c4)C3)CC2)C1 (single isomer, unassigned) [Compound 211]
10	5010	1580	O=C(C1CCOC1)N1CCC(N2CCN(C3CCN(C(=O)c4cc(C(F)(F)F)cc(C(F)(F)F)c4)C(Cc4ccccc4)C3)CC2)C1 (single isomer, unassigned) [Compound 216]
12.6	501	398	O=C(c1ccoc1)N1CCC(N2CCN(C3CCN(C(=O)c4cc(C(F)(F)F)cc(C(F)(F)F)c4)C(Cc4ccc(F)c(F)c4)C3)CC2)C1 (single isomer, unassigned) [Compound 258]
20	3980	–	CC(C)N/C(=N\C#N)N1CCC(N2CCN(C3CCN(C(=O)c4cc(C(F)(F)F)cc(C(F)(F)F)c4)C(Cc4ccccc4)C3)CC2)C1 (stereo not drawn) [Compound 344]
200	501	–	O=C(c1cc(C(F)(F)F)cc(C(F)(F)F)c1)N1CC[C@H](N2CCN(C3CCN(S(=O)(=O)c4ccc(COCc5ccccc5)s4)C3)CC2)C[C@H]1Cc1ccccc1 (stereo partly drawn) [Compound 345]
50.1	1260	–	O=C(c1cc(C(F)(F)F)cc(C(F)(F)F)c1)N1CC[C@H](N2CCN(C3CCN(S(=O)(=O)c4occc4CCOCc4ccccc4)C3)CC2)C[C@H]1Cc1ccccc1 (stereo partly drawn) [Compound 410]
